# Assay results from paper PMC5580309, “Molecular-scale features that govern the effects of O-glycosylation on a carbohydrate-binding module” (Chemical Science, 2015).
# Bridge positions count the residues as written; N and C are the ends. Peptide text beside a SMILES is read from it. * marks the point of attachment. X8 = O=P(O)(O)OC[C@H]1O[C@H](O[C@H]2[C@@H](O)[C@H](O)[C@@H](CO)O[C@@H]2*)[C@@H](O)[C@@H](O)[C@@H]1O; X2 = OC[C@H]1O[C@H](O[C@H]2[C@@H](O)[C@H](O)[C@@H](CO)O[C@@H]2*)[C@@H](O)[C@@H](O)[C@@H]1O; X4 = OC[C@H]1O[C@H](OC[C@H]2O[C@H](*)[C@@H](O)[C@@H](O)[C@@H]2O)[C@H](O)[C@@H](O)[C@@H]1O
# Biological target: T1, thermolysin (Bacillus thermoproteolyticus, UniProt P00800)
# T1 sequence (P00800 233-548): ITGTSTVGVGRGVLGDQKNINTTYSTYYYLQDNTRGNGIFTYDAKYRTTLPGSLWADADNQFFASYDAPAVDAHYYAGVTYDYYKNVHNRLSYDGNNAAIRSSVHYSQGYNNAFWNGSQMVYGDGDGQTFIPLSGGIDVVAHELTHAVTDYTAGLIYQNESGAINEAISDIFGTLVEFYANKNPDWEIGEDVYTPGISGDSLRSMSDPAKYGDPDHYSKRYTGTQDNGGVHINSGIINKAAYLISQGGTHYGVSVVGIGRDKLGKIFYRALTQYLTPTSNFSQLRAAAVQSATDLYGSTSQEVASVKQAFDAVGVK
# Test: Proteolytic stability: half-life to thermolysin degradation
# Assay type: in vitro ADME
# Conditions: for Change in Half-Life to Thermolysin Degradation: glyco-variant minus its corresponding unglycosylated CBM (e.g. 2-1), *** not used in the correlation plot; for half-life: thermolysin (isolated protease), thermolysin degradation, mean of three trials ± SD, procedures as described previously (ESI ref 18)
# Description: All error bars reported are standard deviations of data achieved from three separate trials.
# cellulose that were determined in accordance with our procedures as described previously 18.
# The results are presented as mean of three trials ± SD. *Denotes an averaged value of four trials
SMILES,Change in Half-Life to Thermolysin Degradation [min],half-life [min]
"CC[C@H](C)[C@@H]1NC(=O)CNC(=O)CNC(=O)[C@@H](NC(=O)[C@H](CCC(N)=O)NC(=O)CNC(=O)[C@H](Cc2ccc(O)cc2)NC(=O)[C@H](Cc2c[nH]cn2)NC(=O)[C@H](CO[C@H]2O[C@H](CO[C@H]3O[C@H](CO)[C@@H](O)[C@H](O)[C@H]3O)[C@@H](O)[C@H](O)[C@@H]2O)NC(=O)[C@H](CCC(N)=O)NC(=O)[C@@H](N)[C@@H](C)O)CSSC[C@@H]2NC(=O)[C@H]([C@@H](C)O)NC(=O)[C@H]([C@@H](C)O)NC(=O)CNC(=O)[C@H](CO)NC(=O)[C@H](C)NC(=O)[C@H](CSSC[C@@H](C(=O)N[C@@H](CC(C)C)C(=O)O)NC(=O)[C@H](CCC(N)=O)NC(=O)[C@H](CO)NC(=O)[C@H](Cc3ccc(O)cc3)NC(=O)[C@H](Cc3ccc(O)cc3)NC(=O)[C@@H]3CCCN3C(=O)[C@H](CC(N)=O)NC(=O)[C@H](CC(C)C)NC(=O)[C@H](C(C)C)NC(=O)[C@H](CCC(N)=O)NC2=O)NC(=O)[C@H](C(C)C)NC(=O)[C@H]([C@@H](C)O)NC(=O)[C@@H]2CCCN2C(=O)CNC(=O)[C@H](CO)NC(=O)[C@H](Cc2ccc(O)cc2)NC(=O)CNC1=O [CBM variant 30] (H-TQS(X4)HYGQCGGIGYSGPTVCASGTTCQVLNPYYSQCL-OH; disulfide 8-25, 19-35)",33,46.8 ± 6.6
"CC[C@H](C)[C@@H]1NC(=O)CNC(=O)CNC(=O)[C@@H](NC(=O)[C@H](CCC(N)=O)NC(=O)CNC(=O)[C@H](Cc2ccc(O)cc2)NC(=O)[C@H](Cc2c[nH]cn2)NC(=O)[C@H](CO[C@H]2O[C@H](CO)[C@@H](O)[C@H](O)[C@@H]2O[C@H]2O[C@H](COP(=O)(O)O)[C@@H](O)[C@H](O)[C@@H]2O)NC(=O)[C@H](CCC(N)=O)NC(=O)[C@@H](N)[C@@H](C)O)CSSC[C@@H]2NC(=O)[C@H]([C@@H](C)O)NC(=O)[C@H]([C@@H](C)O)NC(=O)CNC(=O)[C@H](CO)NC(=O)[C@H](C)NC(=O)[C@H](CSSC[C@@H](C(=O)N[C@@H](CC(C)C)C(=O)O)NC(=O)[C@H](CCC(N)=O)NC(=O)[C@H](CO)NC(=O)[C@H](Cc3ccc(O)cc3)NC(=O)[C@H](Cc3ccc(O)cc3)NC(=O)[C@@H]3CCCN3C(=O)[C@H](CC(N)=O)NC(=O)[C@H](CC(C)C)NC(=O)[C@H](C(C)C)NC(=O)[C@H](CCC(N)=O)NC2=O)NC(=O)[C@H](C(C)C)NC(=O)[C@H]([C@@H](C)O)NC(=O)[C@@H]2CCCN2C(=O)CNC(=O)[C@H](CO)NC(=O)[C@H](Cc2ccc(O)cc2)NC(=O)CNC1=O [CBM variant 31] (H-TQS(X8)HYGQCGGIGYSGPTVCASGTTCQVLNPYYSQCL-OH; disulfide 8-25, 19-35)",12,25.8 ± 3
"CC[C@H](C)[C@@H]1NC(=O)CNC(=O)CNC(=O)[C@@H](NC(=O)[C@H](CCC(N)=O)NC(=O)CNC(=O)[C@H](C)NC(=O)[C@H](Cc2c[nH]cn2)NC(=O)[C@H](CO[C@H]2O[C@H](CO)[C@@H](O)[C@H](O)[C@@H]2O[C@H]2O[C@H](CO)[C@@H](O)[C@H](O)[C@@H]2O)NC(=O)[C@H](CCC(N)=O)NC(=O)[C@@H](N)[C@@H](C)O)CSSC[C@@H]2NC(=O)[C@H]([C@@H](C)O)NC(=O)[C@H]([C@@H](C)O)NC(=O)CNC(=O)[C@H](CO)NC(=O)[C@H](C)NC(=O)[C@H](CSSC[C@@H](C(=O)N[C@@H](CC(C)C)C(=O)O)NC(=O)[C@H](CCC(N)=O)NC(=O)[C@H](CO)NC(=O)[C@H](Cc3ccc(O)cc3)NC(=O)[C@H](Cc3ccc(O)cc3)NC(=O)[C@@H]3CCCN3C(=O)[C@H](CC(N)=O)NC(=O)[C@H](CC(C)C)NC(=O)[C@H](C(C)C)NC(=O)[C@H](CCC(N)=O)NC2=O)NC(=O)[C@H](C(C)C)NC(=O)[C@H]([C@@H](C)O)NC(=O)[C@@H]2CCCN2C(=O)CNC(=O)[C@H](CO)NC(=O)[C@H](Cc2ccc(O)cc2)NC(=O)CNC1=O [CBM variant 32] (H-TQS(X2)HAGQCGGIGYSGPTVCASGTTCQVLNPYYSQCL-OH; disulfide 8-25, 19-35)",1.2,6 ± 1.2
"CC[C@H](C)[C@@H]1NC(=O)CNC(=O)CNC(=O)[C@@H](NC(=O)[C@H](CCC(N)=O)NC(=O)CNC(=O)[C@H](Cc2ccc(O)cc2)NC(=O)[C@H](Cc2c[nH]cn2)NC(=O)[C@@H](NC(=O)[C@H](CCC(N)=O)NC(=O)[C@@H](N)[C@@H](C)O)[C@@H](C)O[C@H]2O[C@H](CO)[C@@H](O)[C@H](O)[C@@H]2O[C@H]2O[C@H](CO)[C@@H](O)[C@H](O)[C@@H]2O)CSSC[C@@H]2NC(=O)[C@H]([C@@H](C)O)NC(=O)[C@H]([C@@H](C)O)NC(=O)CNC(=O)[C@H](CO)NC(=O)[C@H](C)NC(=O)[C@H](CSSC[C@@H](C(=O)N[C@@H](CC(C)C)C(=O)O)NC(=O)[C@H](CCC(N)=O)NC(=O)[C@H](CO)NC(=O)[C@H](Cc3ccc(O)cc3)NC(=O)[C@H](Cc3ccc(O)cc3)NC(=O)[C@@H]3CCCN3C(=O)[C@H](CC(N)=O)NC(=O)[C@H](CC(C)C)NC(=O)[C@H](C(C)C)NC(=O)[C@H](CCC(N)=O)NC2=O)NC(=O)[C@H](C(C)C)NC(=O)[C@H]([C@@H](C)O)NC(=O)[C@@H]2CCCN2C(=O)CNC(=O)[C@H](CO)NC(=O)[C@H](Cc2ccc(O)cc2)NC(=O)CNC1=O [CBM variant 33] (H-TQT(X2)HYGQCGGIGYSGPTVCASGTTCQVLNPYYSQCL-OH; disulfide 8-25, 19-35)",72,93.6 ± 24
"CC[C@H](C)[C@@H]1NC(=O)CNC(=O)CNC(=O)[C@@H](NC(=O)[C@H](CCC(N)=O)NC(=O)CNC(=O)[C@H](Cc2ccc(O)cc2)NC(=O)[C@H](Cc2c[nH]cn2)NC(=O)[C@H](CS[C@H]2O[C@H](CO)[C@@H](O)[C@H](O)[C@@H]2O[C@H]2O[C@H](CO)[C@@H](O)[C@H](O)[C@@H]2O)NC(=O)[C@H](CCC(N)=O)NC(=O)[C@@H](N)[C@@H](C)O)CSSC[C@@H]2NC(=O)[C@H]([C@@H](C)O)NC(=O)[C@H]([C@@H](C)O)NC(=O)CNC(=O)[C@H](CO)NC(=O)[C@H](C)NC(=O)[C@H](CSSC[C@@H](C(=O)N[C@@H](CC(C)C)C(=O)O)NC(=O)[C@H](CCC(N)=O)NC(=O)[C@H](CO)NC(=O)[C@H](Cc3ccc(O)cc3)NC(=O)[C@H](Cc3ccc(O)cc3)NC(=O)[C@@H]3CCCN3C(=O)[C@H](CC(N)=O)NC(=O)[C@H](CC(C)C)NC(=O)[C@H](C(C)C)NC(=O)[C@H](CCC(N)=O)NC2=O)NC(=O)[C@H](C(C)C)NC(=O)[C@H]([C@@H](C)O)NC(=O)[C@@H]2CCCN2C(=O)CNC(=O)[C@H](CO)NC(=O)[C@H](Cc2ccc(O)cc2)NC(=O)CNC1=O [CBM variant 34] (H-TQC(X2)HYGQCGGIGYSGPTVCASGTTCQVLNPYYSQCL-OH; disulfide 8-25, 19-35)",,10.8 ± 1.2
